Entries after “also recorded” stand apart in the source; their conditions may differ. Structures can show the parent of a compound that is named as a salt.
Tests used:
[1] = tested on: male BALB/c mice with sciatic nerve transaction; assay: Von Frey test, hindpaw withdrawal threshold in sciatic nerve transaction (SNT) neuropathic pain model; type: in vivo
Description: (§1) Lyophilized andrographolide powder is dissolved in DMSO and subsequently diluted to 2.86 mM (1 mg/mL) in 90% normal saline and 10% DMSO for storage. The mixture is injected into the peritoneum (body cavity) of each animal (intraperitoneal injection) based on 5 mg/kg animal weight, for example, a 30 g mouse is injected with 150 μL of saline containing 0.15 mg of andrographolide. NSAID drugs (Diclofenac sodium salt) may be purchased from Sigma (D6899), and diluted to 2.86 mM (0.91 mg/mL) in 90% saline and 10% DMSO for storage. The NSAID drugs is administered via intraperitoneal injection based on […] animal weight, for example, a 30 g mouse is injected with 165 μL of saline containing 0.15 mg of NSAID drugs. The number of molecules administered is less in andrographolide treated mouse than in NSAID drugs treated […]. These drugs are administered daily after surgery.
(§2) An operation for inducing the sciatic nerve transaction of BALB/c mice is processing as follows. After isoflurane anesthesia is applied to male BALB/c mice, which have about 8 weeks of age and have a weight of approximately 30 g, the skin of the right thigh is slit to expose the muscle. Then a blunt instrument is used to spread open the biceps femoris to expose the sciatic nerve and its three nerve branches, which are the sural nerve, common peroneal nerve and tibial nerve. Then a sterilized no. 4-0 chromium wire is used to tie the sciatic nerve, and approximately 2-4 mm of the ends of the common peroneal nerve and the tibial nerve are cut at a position near the tying position. Care is taken to avoid touching and stretching the sural nerve. The muscle and skin are closed in two separate layers. For sham surgery, the sciatic nerve is exposed as described above but no contact is made with the nerve. In this embodiment, the nerve is tied to a level such that there is slight sheathing of the nerve in order to avoid affecting the blood circulation in the area. The mice's behavior is observed after several days of rest.
(§3) The experiment is separated into the following groups that receive different treatments. In the normal group, no surgery is carried out and no andrographolide or NSAID drugs are administered to mice. In the pain group (OP-saline), saline is given to mice daily after surgery. In the control group (Op-NSAIDs), Diclofenac sodium salt is administered to mice daily after surgery. In the experimental group (Op-AP), an andrographolide compound is administered to mice daily after surgery. The means of administration is by intraperitoneal injection. The concentration of drugs for both the control group and the experimental group is 5 mg/kg animal weight, and the average animal weight is 30 g. For the model that uses an in vivo sciatic nerve transaction to simulate pathological pain, the mice behavior is tested on 3, 7, 14 days after surgery. The von Frey hair test is used to determinate the withdrawal threshold of the pathological pain.
Mechanical allodynia threshold at the lateral plantar surface of the hindpaw is assessed before nerve injury (as basal pain threshold) and then testing began on day 3 after surgery and continued for 7 and 14 days after surgery. Mechanical sensitivity is determined by measuring the withdrawal thresholds and reaction ratio to von Frey hairs (Stoelting, Wood Dale, Ill.) using the up and- down method (Dixon 1980) as described by Chaplan (Chaplan, Bach et al. 1994). Animals were placed in a plastic cage with a wire net floor and were allowed to habituate 10-15 min before testing began. Animals were also habituated over a period of 2-3 consecutive days by recording a series of baseline measurements. The filaments were applied in ascending order, each 5 times at an interval of 2-3 s to the plantar surface of the hindpaw (Bourquin, Suveges et al. 2006) and the smallest filament eliciting a foot withdrawal response is considered the threshold stimulus. […]

[2] = tested on: male BALB/c mice with sciatic nerve transaction; assay: Von Frey test, withdrawal rate (reaction types II-IV) with 0.02 g and 0.07 g fibers in SNT neuropathic pain model; type: in vivo; details: 5 mg/kg i.p. daily; for withdrawal rate, von Frey fiber of 0.02 g, right hindpaw: 3, 7 and 14 days after surgery
Description: as §1, §2, §3
Mechanical allodynia threshold at the lateral plantar surface of the hindpaw is assessed before nerve injury (as basal pain threshold) and then testing began on day 3 after surgery and continued for 7 and 14 days after surgery. Mechanical sensitivity is determined by measuring the withdrawal thresholds and reaction ratio to von Frey hairs (Stoelting, Wood Dale, Ill.) using the up and- down method (Dixon 1980) as described by Chaplan (Chaplan, Bach et al. 1994). […]

[3] = tested on: glial fibrillary acidic protein (GFAP); assay: GFAP immunoreactivity in spinal cord astrocytes (L4-L6), immunohistochemical staining and quantification; type: in vivo, mice; details: 5 mg/kg i.p. daily; 7 days after surgery; compared to OP-saline group
Description: The following procedure is to ascertain the activity of astrocytic glial cells of the spinal cord. The mice are deeply anaesthetized with sevoflurane and perfused transcardially with saline followed by 0.1 M phosphate buffer solution containing 4% paraformaldehyde. The L4-L6 segment of spinal cord and left and right sciatic nerves are dissected out and post-fixed in a 4% parformaldehye solution at 4° C. overnight, and transferred to a series of solution of phosphate-buffered saline (PBS), graded ethanol/PBS, xylyne, graded xylyne/wax mixture, and finally embedded in wax. A rotary slicer for tissues is used to slice the sample to a transverse section with a thickness of 3 um, and warm water is used to spread and attach to the glass slice.
The wax sections are dewaxed in a series of xylene, graded xylene/ethanol mixture, or graded ethanol mixture, and finally incubation in PBS. […]
The immunoreactivity in each group is analyzed, and the intensity of chromogen staining or fluorescence is determined by photo form 4-5 independent animals. The image of the photo is analyzed using the same settings for quantitative comparison. All measured pixels in a specific area are analyzed by the ImageJ software on 0 (black) to 255 (white) scales. The total number of pixels having a value less than 50 in the photo is calculated and used to estimate the value of immunoreactivity in the area of interest.

SMILES	left hindpaw withdrawal threshold (contralateral, mirror pain), persistence of higher threshold ([1]; 5 mg/kg i.p. daily, 7-14 days post-operation, compared to saline group)	left hindpaw withdrawal threshold (contralateral, mirror pain) ([1]; 5 mg/kg i.p. daily, 3 days after surgery, compared to saline group)	right hindpaw withdrawal threshold ([1]; 5 mg/kg i.p. daily after surgery, 3, 7 and 14 days after surgery, compared to OP-saline group)	left hindpaw withdrawal threshold (contralateral, mirror pain) ([1]; 5 mg/kg i.p. daily, 3, 7 and 14 days after surgery, compared to saline group and NSAIDs group)	right hindpaw withdrawal threshold, effect compared with NSAID drugs ([1]; 5 mg/kg i.p. daily, 3 and 14 days after surgery, vs Op-NSAIDs (Diclofenac sodium salt))	degree of relief from mechanical allodynia compared with same dose of NSAID drugs ([1]; 5 mg/kg i.p. daily, overall summary)	withdrawal rate, von Frey fiber of 0.02 g, right hindpaw ([2]; compared with Op-NSAID group)	withdrawal rate, von Frey fiber of 0.02 g, right hindpaw ([2]; compared with Op-saline group)	withdrawal rate, fiber of 0.07 g, difference to Op-NSAID group ([2]; 7-14 days after surgery)	withdrawal rate, fiber of 0.07 g, difference to Op-NSAID group ([2]; 3 days after surgery)	withdrawal rate, fiber of 0.07 g ([2]; compared to Op-saline group)	GFAP immunoreactivity of the astrocytes, L4-L6 spinal area [3]
O=C(O)Cc1ccccc1Nc1c(Cl)cccc1Cl [NSAIDS, Diclofenac sodium salt, reference compound]	does not sustain	higher (although not significant)										
C=C1CC[C@@H]2[C@](C)(CO)[C@H](O)CC[C@@]2(C)[C@@H]1C/C=C1/C(=O)OC[C@H]1O [andrographolide]			significantly increased; also recorded: significant increase	significantly increased	more significant effect	better	very significant lower	very significant low	significant	not significant	reduced pain sensation	reduced trend

From US20180008570A1, “METHOD OF TREATMENT OF A NEUROPATHIC PAIN” (CHAOYANG UNIVERSITY OF TECHNOLOGY, priority 2016, published 2018)
